Measurements from the CheMixHub viscosity set.
± gives the uncertainty stated by the source.

Test: xn = mol fraction of the nth substance listed

CCCCC(CC)COP(=O)(O)OCC(CC)CCCC (stereo not given) + CC(=O)O
303.15 K, 101 kPa
Conditions	viscosity [mPa·s]
x1 = 0.0796	1.574 ± 0.075
x1 = 0.1382	2.292 ± 0.11
x1 = 0.2186	3.386 ± 0.15
x1 = 0.3103	4.872 ± 0.21
x1 = 0.3968	6.604 ± 0.27
x1 = 0.4788	8.198 ± 0.33
x1 = 0.5297	9.118 ± 0.36
x1 = 0.6234	11.09 ± 0.42
x1 = 0.6891	12.58 ± 0.47
x1 = 0.7384	13.67 ± 0.51
x1 = 0.8068	15.2 ± 0.56
x1 = 0.8905	16.88 ± 0.62
x1 = 0.9592	18.49 ± 0.68

Cc1cccc(O)c1 + CC(=O)O
viscosity [mPa·s], 101 kPa
Conditions	x2 = 0.1684	x2 = 0.313	x2 = 0.4385	x2 = 0.5485	x2 = 0.6457	x2 = 0.7321	x2 = 0.8096	x2 = 0.8794	x2 = 0.9425
298.15 K	8.835 ± 1	6.522 ± 0.79	5.086 ± 0.66	4.131 ± 0.54	3.438 ± 0.46	2.895 ± 0.39	2.425 ± 0.33	1.996 ± 0.28	1.602 ± 0.23
308.15 K	5.453 ± 0.69	4.462 ± 0.59	3.486 ± 0.46	3.298 ± 0.44	2.87 ± 0.39	2.483 ± 0.34	2.143 ± 0.29	1.811 ± 0.25	1.437 ± 0.2
318.15 K	4.444 ± 0.58	3.818 ± 0.51	3.302 ± 0.44	2.942 ± 0.4	2.618 ± 0.35	2.31 ± 0.32	1.945 ± 0.27	1.625 ± 0.23	1.22 ± 0.18

Cc1cccc(O)c1 + CC(=O)c1ccccc1
303.15 K, 101 kPa
Conditions	viscosity [mPa·s]
x2 = 0.139	8.438 ± 0.071
x2 = 0.1802	8.063 ± 0.068
x2 = 0.27	7.268 ± 0.061
x2 = 0.4388	5.843 ± 0.05
x2 = 0.4644	5.63 ± 0.048
x2 = 0.5506	4.927 ± 0.043
x2 = 0.7407	3.39 ± 0.03
x2 = 0.8321	2.684 ± 0.024
x2 = 0.9266	2 ± 0.018

C[N+](=O)[O-] + CC(C)(C)O
viscosity [mPa·s], 101.33 kPa
Conditions	298.15 K	303.15 K	313.15 K
x2 = 0.05	0.609 ± 0.025	0.569 ± 0.023	0.511 ± 0.021
x2 = 0.1002	0.611 ± 0.025	0.567 ± 0.023	0.506 ± 0.021
x2 = 0.1502	0.642 ± 0.026	0.573 ± 0.023	0.508 ± 0.021
x2 = 0.2	0.644 ± 0.026	0.587 ± 0.024	0.517 ± 0.021
x2 = 0.2499	0.674 ± 0.027	0.609 ± 0.025	0.531 ± 0.022
x2 = 0.3	0.749 ± 0.03	0.638 ± 0.026	0.549 ± 0.022
x2 = 0.3503	0.793 ± 0.032	0.672 ± 0.027	0.573 ± 0.023
x2 = 0.4	0.87 ± 0.035	0.714 ± 0.029	0.601 ± 0.024
x2 = 0.4501	0.894 ± 0.036	0.761 ± 0.031	0.633 ± 0.026
x2 = 0.5001	0.972 ± 0.039	0.819 ± 0.033	0.671 ± 0.027
x2 = 0.55	1.072 ± 0.043	0.886 ± 0.036	0.717 ± 0.029
x2 = 0.6001	1.154 ± 0.047	0.962 ± 0.039	0.811 ± 0.033
x2 = 0.6499	1.219 ± 0.049	1.057 ± 0.043	0.829 ± 0.034
x2 = 0.7	1.361 ± 0.055	1.174 ± 0.047	0.885 ± 0.036
x2 = 0.75	1.557 ± 0.063	1.32 ± 0.053	0.966 ± 0.039
x2 = 0.8	1.776 ± 0.072	1.491 ± 0.06	1.106 ± 0.045
x2 = 0.85	2.079 ± 0.084	1.72 ± 0.069	1.244 ± 0.05
x2 = 0.8999	2.51 ± 0.1	2.05 ± 0.083	1.442 ± 0.058
x2 = 0.95	3.194 ± 0.13	2.527 ± 0.1	1.697 ± 0.069

C[N+](=O)[O-] + CC(C)=O
298.15 K, 101 kPa
Conditions	viscosity [mPa·s]
x1 = 0.1326	0.356 ± 0.036
x1 = 0.2566	0.3972 ± 0.04
x1 = 0.3714	0.4352 ± 0.044
x1 = 0.479	0.4701 ± 0.048
x1 = 0.5797	0.5032 ± 0.051
x1 = 0.6739	0.5325 ± 0.054
x1 = 0.7631	0.5603 ± 0.056
x1 = 0.8465	0.5855 ± 0.059
x1 = 0.9257	0.6101 ± 0.062

OCC1CC1 + CC(C)CC(C)(C)C
viscosity [mPa·s], 101 kPa
Conditions	x1 = 0.0991	x1 = 0.1991	x1 = 0.3007	x1 = 0.4013	x1 = 0.5	x1 = 0.6004	x1 = 0.7007	x1 = 0.8004	x1 = 0.9002
293.15 K	0.535 ± 0.011	0.592 ± 0.013	0.676 ± 0.014	0.801 ± 0.017	0.97 ± 0.021	1.214 ± 0.026	1.561 ± 0.033	2.068 ± 0.044	2.803 ± 0.06
298.15 K	0.505 ± 0.011	0.556 ± 0.012	0.63 ± 0.014	0.74 ± 0.016	0.886 ± 0.019	1.098 ± 0.024	1.398 ± 0.03	1.831 ± 0.039	2.459 ± 0.053
303.15 K	0.476 ± 0.01	0.522 ± 0.011	0.587 ± 0.013	0.684 ± 0.015	0.811 ± 0.017	0.997 ± 0.021	1.257 ± 0.027	1.632 ± 0.035	2.168 ± 0.047
308.15 K	0.45 ± 0.01	0.491 ± 0.011	0.549 ± 0.012	0.634 ± 0.014	0.746 ± 0.016	0.908 ± 0.019	1.136 ± 0.024	1.46 ± 0.031	1.921 ± 0.041
313.15 K	0.425 ± 0.009	0.462 ± 0.01	0.514 ± 0.011	0.59 ± 0.013	0.688 ± 0.015	0.831 ± 0.018	1.029 ± 0.022	1.31 ± 0.028	1.709 ± 0.037
318.15 K	0.396 ± 0.009	0.431 ± 0.009	0.478 ± 0.01	0.546 ± 0.012	0.633 ± 0.014	0.759 ± 0.016	0.934 ± 0.02	1.181 ± 0.025	1.527 ± 0.033
323.15 K	0.38 ± 0.008	0.411 ± 0.009	0.454 ± 0.01	0.514 ± 0.011	0.59 ± 0.013	0.701 ± 0.015	0.854 ± 0.018	1.071 ± 0.023	1.372 ± 0.029

C[N+](=O)[O-] + CC(C)CO
298.15 K, 101 kPa
Conditions	viscosity [mPa·s]
x1 = 0.1592	2.304 ± 0.23
x1 = 0.2992	1.779 ± 0.18
x1 = 0.4225	1.382 ± 0.14
x1 = 0.5327	1.108 ± 0.11
x1 = 0.6306	0.9667 ± 0.097
x1 = 0.7193	0.822 ± 0.083
x1 = 0.7993	0.7537 ± 0.076
x1 = 0.8724	0.7066 ± 0.071
x1 = 0.9387	0.6682 ± 0.067

ClC1CCCCC1 + CC(C)CO
viscosity [mPa·s], 101.33 kPa
Conditions	x1 = 0.1018	x1 = 0.2015	x1 = 0.3066	x1 = 0.4073	x1 = 0.5034	x1 = 0.5996	x1 = 0.7053	x1 = 0.8003	x1 = 0.8949
298.15 K	2.771 ± 0.022	2.342 ± 0.019	2.035 ± 0.017	1.835 ± 0.015	1.687 ± 0.014	1.597 ± 0.014	1.525 ± 0.013	1.5 ± 0.013	1.5 ± 0.013
313.15 K	1.784 ± 0.014	1.555 ± 0.013	1.393 ± 0.012	1.284 ± 0.011	1.223 ± 0.011	1.181 ± 0.01	1.146 ± 0.01	1.132 ± 0.01	1.144 ± 0.01
